Laboratory results taken from patent US12286443B2, “Bycyclic JAK inhibitors and uses thereof” (Insilico Medicine IP Limited, priority 2019, dated 2025).

test system: Hut-78 cells; assay: Inhibition in Hut-78 cells (IL-2 stimulated, HTRF); assay type: cell-based; settings: Homo sapiens, HuT78; compound 2 hours at 37° C., then IL-2 100 ng/mL 10 min; HTRF; read-out: Hut-78 cells IC50
Method: Exemplary compounds were assayed to determine potency in inhibiting Hut-78 cells by determining IC50 values.
Hut-78 cells were cultures in IMDM+20% FBS medium. Cells were maintained in log phase before the assay. Cell pellets were collected and resuspended in serum-free and phenol-free RPMI 1640 medium. 40,000 cells/well (10 μL) were seeded in each well of a 384-well plate and incubated with and without compound for 2 hours at 37° C. and 5% C02. IL-2 was added (2 μL, final concentration 100 ng/mL) and the mixture was incubated for 10 min. Cells were lysed by adding 4 μL labeled antibodies and the mixture was incubated overnight. The plate was read using the HTRF protocol on an Envision plate reader. The data was analyzed using XL-fit software (Supplier: ID business solutions Ltd.; Software version: XL fit 5.0). Inhibition %=(Max−Sample value)/(Max−Min)*100.
In the table, “A” indicates an IC50 of less than 0.5 μM, “B” indicates an IC50 range from 0.5 μM to 1 μM; and “C” indicates an IC50 range from 1 μM to 10 μM. Also, “na” indicates data is not available.

First: O=C(NCCC(F)(F)F)c1n[nH]c2c1CN(c1ncnc3[nH]ccc13)CC2 [Compound 109]
Second: O=C(NCCC(F)(F)F)c1noc2c1CN(c1ncnc3[nH]ccc13)CC2 [Compound 110]
The IC50 of the first is higher: 1000 to 10000 nM for the first, 500 to 1000 nM for the second.

First: N#Cc1cn(C(=O)NCCC(F)(F)F)c2c1CCN(c1ncnc3[nH]ccc13)C2 [Compound 143]
Second: O=C(NC(CO)CC(F)(F)F)c1noc2c1CN(c1ncnc3[nH]ccc13)CC2 (stereo not drawn) [Compound 186]
The IC50 of the first is higher: 1000 to 10000 nM for the first, < 500 nM for the second.

First: O=C(NCC1CC1(F)F)c1noc2c1CN(c1ncnc3[nH]ccc13)CC2 (stereo not drawn) [Compound 179]
Second: O=C(NC1CC1C(F)(F)F)c1noc2c1CN(c1ncnc3[nH]ccc13)CC2 (stereo not drawn) [Compound 182]
The IC50 of the first is higher: 1000 to 10000 nM for the first, < 500 nM for the second.

target: T1, TYK2 (Homo sapiens, UniProt P29597); assay: Inhibition of TYK2 kinase, LANCE Ultra TR-FRET assay; assay type: biochemical; settings: 4 nM TYK2, 2x ATP 30 μM, 15 min pre-incubation, 90 min reaction, 23° C., read-out: tyk IC50
T1 construct: purchased Invitrogen PR8440C
Method: (§1) Exemplary compounds were assayed to determine potency in inhibiting activity of JAK1-3 and TYK2 kinases by determining IC50 values.
(§2) The sources of test materials and equipment are as follows: JAK1 (Invitrogen, Cat. No PV4775), JAK2 (Invitrogen, Cat. No PV4210), JAK3 (Invitrogen, Cat. No PV4080), TYK2 (Invitrogen, Cat. No PR8440C), ATP (Sigma, Cat. No. A7699-1G), DMSO (Sigma, Cat. No. D2650), DTT (Sigma, Cat. No. 43815), 384 wells_compound plate (Greiner, Cat. No. 781280), 384 wells_assay plate (Perkin Elmer, Cat. No. 6007299), LANCE Ultra ULight™-JAK-1 peptide (Perkin Elmer, Cat. No. TRF0121), LANCET™ Eu-W1024 Anti-phosphotyrosine (PT66) (Perkin Elmer, Cat. No. AD0069), LANCET™ Detection Buffer(Perkin Elmer, Cat. No. CR97-100).
(§3) The concentrations of test compounds varied from 100 μM to 1.7 nM with 3-fold dilution, 11 points, in duplicates while the concentrations of the reference compound, Tofacitinib, varied from 1 μM to 0.017 nM with 3-fold dilution, 11 points, in duplicates.
(§4) The assay buffer contained 50 mM HEPES (pH 7.5), 0.01% Brij-35, 10 mM MgCl2, 1 mM EDTA, 2 mM DTT. Incubations were carried out at 23° C.
(§5) Prior to the assay, enzyme, peptide substrate and serially diluted test compounds were pre-incubated together in assay buffer (5 μL) for 15 minutes (peptide substrate concentration: 50 nM; JAK enzyme concentrations: 2 nM JAK1; […]; […] and 4 nM TYK2). And the assay was initiated by the addition of 5 μL assay buffer containing 2× final ATP concentration (these are the 2×ATP concentrations: 76 μM JAK1; 24 μM JAK2; 8 μM JAK3 and 30 μM TYK2). Following the 90-minute incubation, antibody conjugated with Eu is dissolved in detection buffer to add into wells and then incubated for 60 minutes. The 10 μL detection buffer contains EDTA to stop the enzymatic reaction. The plate is analyzed by Perkin Elmer Envision on TR-FRET mode. The high ratio of 665/615 represents no inhibition of kinase reaction while the low ratio of 665/615 represents complete inhibition of kinase reaction.
(§6) Curves are fit by XLFIT5 as inhibition rate % vs. log [compound concentration] using 4 parameters logistic model 205.
(§7) In the table, “A” indicates an IC50 of less than 100 nM, “B” indicates an IC50 range from 100 nM to 500 nM; “C” indicates an IC50 range from 500 nM to 2 μM; and “D” indicates an IC50 greater than 2 μM. Also, “na” indicates data is not available.

T1 sequence (P29597 whole entry): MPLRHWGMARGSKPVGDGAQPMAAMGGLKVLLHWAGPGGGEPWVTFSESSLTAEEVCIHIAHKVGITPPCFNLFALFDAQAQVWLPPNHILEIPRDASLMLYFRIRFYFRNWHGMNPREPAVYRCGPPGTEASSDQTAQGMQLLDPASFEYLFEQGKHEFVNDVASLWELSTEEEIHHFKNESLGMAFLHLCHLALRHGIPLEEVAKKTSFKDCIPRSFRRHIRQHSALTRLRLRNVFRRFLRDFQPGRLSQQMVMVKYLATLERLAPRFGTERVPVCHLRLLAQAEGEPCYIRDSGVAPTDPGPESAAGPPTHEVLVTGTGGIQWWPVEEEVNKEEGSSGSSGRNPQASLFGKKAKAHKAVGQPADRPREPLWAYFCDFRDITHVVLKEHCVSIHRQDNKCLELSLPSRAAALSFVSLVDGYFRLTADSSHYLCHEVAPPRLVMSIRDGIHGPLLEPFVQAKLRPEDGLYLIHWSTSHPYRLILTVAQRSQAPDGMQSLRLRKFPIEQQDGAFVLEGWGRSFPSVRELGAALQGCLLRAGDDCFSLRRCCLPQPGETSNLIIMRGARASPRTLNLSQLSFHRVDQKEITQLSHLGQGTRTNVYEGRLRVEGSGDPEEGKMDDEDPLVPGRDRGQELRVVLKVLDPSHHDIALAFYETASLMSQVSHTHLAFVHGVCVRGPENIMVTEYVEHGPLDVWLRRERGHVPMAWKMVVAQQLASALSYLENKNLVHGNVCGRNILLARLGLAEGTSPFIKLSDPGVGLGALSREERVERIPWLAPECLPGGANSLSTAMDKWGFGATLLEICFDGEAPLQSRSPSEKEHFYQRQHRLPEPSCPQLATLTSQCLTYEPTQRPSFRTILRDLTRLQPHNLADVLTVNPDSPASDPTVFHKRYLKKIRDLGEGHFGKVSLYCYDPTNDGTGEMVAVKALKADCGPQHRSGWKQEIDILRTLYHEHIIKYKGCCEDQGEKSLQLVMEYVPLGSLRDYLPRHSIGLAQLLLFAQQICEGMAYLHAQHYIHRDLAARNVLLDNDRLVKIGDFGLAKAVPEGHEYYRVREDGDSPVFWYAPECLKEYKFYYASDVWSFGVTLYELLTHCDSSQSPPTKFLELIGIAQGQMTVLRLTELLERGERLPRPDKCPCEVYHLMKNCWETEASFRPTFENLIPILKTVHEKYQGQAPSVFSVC

First: O=C(NCCC(F)(F)F)c1n[nH]c2c1CN(c1ncnc3[nH]ccc13)CC2 [Compound 109]
Second: O=C(NCCC(F)(F)F)c1noc2c1CN(c1ncnc3[nH]ccc13)CC2 [Compound 110]
The IC50 of the first is higher: 500 to 2000 nM for the first, 100 to 500 nM for the second. The second is the more potent here.

Compared with `N#Cc1cn(C(=O)NCCC(F)(F)F)c2c1CCN(c1ncnc3[nH]ccc13)C2` [Compound 143], `O=C(NC(CO)CC(F)(F)F)c1noc2c1CN(c1ncnc3[nH]ccc13)CC2` (stereo not drawn) [Compound 186] is lower in IC50: 500 to 2000 nM for the first, 100 to 500 nM for the second. The second is the more potent here.

First: O=C(NCC1CC1(F)F)c1noc2c1CN(c1ncnc3[nH]ccc13)CC2 (stereo not drawn) [Compound 179]
Second: O=C(NC1CC1C(F)(F)F)c1noc2c1CN(c1ncnc3[nH]ccc13)CC2 (stereo not drawn) [Compound 182]
The IC50 of the first is higher: > 2000 nM for the first, 500 to 2000 nM for the second. The second is the more potent here.

target: T2, JAK2 (Homo sapiens, UniProt O60674); assay: Inhibition of JAK2 kinase, LANCE Ultra TR-FRET assay; assay type: biochemical; settings: 2x ATP 24 μM, 15 min pre-incubation, 90 min reaction, 23° C.
T2 construct: purchased Invitrogen PV4210
Method: as §1, §2, §3, §4, §5, §6, §7

T2 sequence (O60674 whole entry): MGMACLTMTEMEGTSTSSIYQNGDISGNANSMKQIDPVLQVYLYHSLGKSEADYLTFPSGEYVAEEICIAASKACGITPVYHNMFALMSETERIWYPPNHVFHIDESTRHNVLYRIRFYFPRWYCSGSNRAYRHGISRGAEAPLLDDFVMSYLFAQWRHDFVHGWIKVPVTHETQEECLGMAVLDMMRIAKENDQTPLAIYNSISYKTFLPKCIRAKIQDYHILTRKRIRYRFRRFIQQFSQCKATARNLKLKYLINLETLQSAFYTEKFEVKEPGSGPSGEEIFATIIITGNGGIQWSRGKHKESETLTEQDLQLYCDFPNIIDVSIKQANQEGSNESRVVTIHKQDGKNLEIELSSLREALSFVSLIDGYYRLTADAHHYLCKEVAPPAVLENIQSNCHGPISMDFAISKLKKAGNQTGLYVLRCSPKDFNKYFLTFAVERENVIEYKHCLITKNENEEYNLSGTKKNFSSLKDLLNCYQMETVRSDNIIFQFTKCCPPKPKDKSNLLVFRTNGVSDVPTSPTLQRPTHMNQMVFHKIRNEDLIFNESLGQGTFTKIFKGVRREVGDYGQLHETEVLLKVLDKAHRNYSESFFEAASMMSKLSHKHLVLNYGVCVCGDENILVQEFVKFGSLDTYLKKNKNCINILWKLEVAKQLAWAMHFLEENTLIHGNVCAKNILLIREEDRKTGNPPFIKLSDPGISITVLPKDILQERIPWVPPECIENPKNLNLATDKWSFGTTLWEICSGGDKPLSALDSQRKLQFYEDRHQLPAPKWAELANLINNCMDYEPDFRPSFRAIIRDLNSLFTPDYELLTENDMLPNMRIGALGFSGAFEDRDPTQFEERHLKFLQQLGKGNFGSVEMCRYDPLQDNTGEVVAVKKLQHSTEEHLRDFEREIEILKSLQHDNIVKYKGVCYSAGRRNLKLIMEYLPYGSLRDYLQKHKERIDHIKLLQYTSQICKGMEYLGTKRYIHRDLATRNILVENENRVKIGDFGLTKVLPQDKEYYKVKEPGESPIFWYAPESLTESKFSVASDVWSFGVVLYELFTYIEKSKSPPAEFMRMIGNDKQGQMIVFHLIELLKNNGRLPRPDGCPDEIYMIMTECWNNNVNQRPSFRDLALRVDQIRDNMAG

Compared with `O=C(NCCC(F)(F)F)c1n[nH]c2c1CN(c1ncnc3[nH]ccc13)CC2` [Compound 109], `O=C(NCCC(F)(F)F)c1noc2c1CN(c1ncnc3[nH]ccc13)CC2` [Compound 110] is lower in IC50: 100 to 500 nM for the first, < 100 nM for the second. The second is the more potent here.

First: N#Cc1cn(C(=O)NCCC(F)(F)F)c2c1CCN(c1ncnc3[nH]ccc13)C2 [Compound 143]
Second: O=C(NC(CO)CC(F)(F)F)c1noc2c1CN(c1ncnc3[nH]ccc13)CC2 (stereo not drawn) [Compound 186]
The IC50 of the first is higher: 100 to 500 nM for the first, < 100 nM for the second.

`O=C(NCC1CC1(F)F)c1noc2c1CN(c1ncnc3[nH]ccc13)CC2` (stereo not drawn) [Compound 179] and `O=C(NC1CC1C(F)(F)F)c1noc2c1CN(c1ncnc3[nH]ccc13)CC2` (stereo not drawn) [Compound 182] fall in the same range of IC50: 100 to 500 nM for the first, 100 to 500 nM for the second.

target: T3, JAK3 (Homo sapiens, UniProt P52333); assay: Inhibition of JAK3 kinase, LANCE Ultra TR-FRET assay; assay type: biochemical; settings: 2x ATP 8 μM, 15 min pre-incubation, 90 min reaction, 23° C.
T3 construct: purchased Invitrogen PV4080
T3 sequence (P52333 1-1124): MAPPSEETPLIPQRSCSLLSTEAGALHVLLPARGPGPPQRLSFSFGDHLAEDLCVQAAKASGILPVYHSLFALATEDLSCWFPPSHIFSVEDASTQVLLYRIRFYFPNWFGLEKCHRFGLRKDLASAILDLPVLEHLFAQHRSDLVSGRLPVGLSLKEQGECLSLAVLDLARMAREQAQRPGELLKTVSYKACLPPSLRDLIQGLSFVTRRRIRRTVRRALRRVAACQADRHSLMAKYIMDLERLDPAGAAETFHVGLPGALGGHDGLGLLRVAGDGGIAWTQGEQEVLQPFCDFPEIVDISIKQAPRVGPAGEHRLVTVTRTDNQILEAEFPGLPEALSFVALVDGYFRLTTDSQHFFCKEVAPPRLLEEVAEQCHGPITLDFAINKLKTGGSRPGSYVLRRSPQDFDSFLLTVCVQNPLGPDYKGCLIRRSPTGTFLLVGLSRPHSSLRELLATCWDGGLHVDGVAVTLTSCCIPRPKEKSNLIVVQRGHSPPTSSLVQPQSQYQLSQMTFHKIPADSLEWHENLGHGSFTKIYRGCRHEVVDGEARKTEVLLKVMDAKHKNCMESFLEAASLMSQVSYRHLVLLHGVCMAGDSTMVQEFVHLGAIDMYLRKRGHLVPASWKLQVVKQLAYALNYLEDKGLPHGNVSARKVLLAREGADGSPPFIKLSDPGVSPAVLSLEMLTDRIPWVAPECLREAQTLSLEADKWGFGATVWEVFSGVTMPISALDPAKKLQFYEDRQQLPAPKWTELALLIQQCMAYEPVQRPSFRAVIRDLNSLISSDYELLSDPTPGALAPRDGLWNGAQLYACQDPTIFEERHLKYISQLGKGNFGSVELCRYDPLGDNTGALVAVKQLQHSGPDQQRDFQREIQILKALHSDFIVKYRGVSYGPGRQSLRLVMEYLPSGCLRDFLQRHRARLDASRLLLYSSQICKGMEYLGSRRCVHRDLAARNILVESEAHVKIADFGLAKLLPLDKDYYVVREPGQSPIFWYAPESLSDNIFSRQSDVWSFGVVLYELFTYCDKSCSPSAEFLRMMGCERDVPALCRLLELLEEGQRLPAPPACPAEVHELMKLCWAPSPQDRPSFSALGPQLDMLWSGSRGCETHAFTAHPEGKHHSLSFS
Method: as §1, §2, §3, §4, §5, §6, §7

`O=C(NCCC(F)(F)F)c1n[nH]c2c1CN(c1ncnc3[nH]ccc13)CC2` [Compound 109] and `O=C(NCCC(F)(F)F)c1noc2c1CN(c1ncnc3[nH]ccc13)CC2` [Compound 110] cannot be ordered by IC50: < 100 nM for the first, < 100 nM for the second.

`N#Cc1cn(C(=O)NCCC(F)(F)F)c2c1CCN(c1ncnc3[nH]ccc13)C2` [Compound 143] and `O=C(NC(CO)CC(F)(F)F)c1noc2c1CN(c1ncnc3[nH]ccc13)CC2` (stereo not drawn) [Compound 186] cannot be ordered by IC50: < 100 nM for the first, < 100 nM for the second.

`O=C(NCC1CC1(F)F)c1noc2c1CN(c1ncnc3[nH]ccc13)CC2` (stereo not drawn) [Compound 179] and `O=C(NC1CC1C(F)(F)F)c1noc2c1CN(c1ncnc3[nH]ccc13)CC2` (stereo not drawn) [Compound 182] cannot be ordered by IC50: < 100 nM for the first, < 100 nM for the second.

target: T4, JAK1 (Homo sapiens, UniProt P23458); assay: Inhibition of JAK1 kinase, LANCE Ultra TR-FRET assay; assay type: biochemical; settings: 2 nM JAK1, 2x ATP 76 μM, 15 min pre-incubation, 90 min reaction, 23° C.
T4 construct: purchased Invitrogen PV4775
Method: as §1, §2, §3, §4, §5, §6, §7

T4 sequence (P23458 whole entry): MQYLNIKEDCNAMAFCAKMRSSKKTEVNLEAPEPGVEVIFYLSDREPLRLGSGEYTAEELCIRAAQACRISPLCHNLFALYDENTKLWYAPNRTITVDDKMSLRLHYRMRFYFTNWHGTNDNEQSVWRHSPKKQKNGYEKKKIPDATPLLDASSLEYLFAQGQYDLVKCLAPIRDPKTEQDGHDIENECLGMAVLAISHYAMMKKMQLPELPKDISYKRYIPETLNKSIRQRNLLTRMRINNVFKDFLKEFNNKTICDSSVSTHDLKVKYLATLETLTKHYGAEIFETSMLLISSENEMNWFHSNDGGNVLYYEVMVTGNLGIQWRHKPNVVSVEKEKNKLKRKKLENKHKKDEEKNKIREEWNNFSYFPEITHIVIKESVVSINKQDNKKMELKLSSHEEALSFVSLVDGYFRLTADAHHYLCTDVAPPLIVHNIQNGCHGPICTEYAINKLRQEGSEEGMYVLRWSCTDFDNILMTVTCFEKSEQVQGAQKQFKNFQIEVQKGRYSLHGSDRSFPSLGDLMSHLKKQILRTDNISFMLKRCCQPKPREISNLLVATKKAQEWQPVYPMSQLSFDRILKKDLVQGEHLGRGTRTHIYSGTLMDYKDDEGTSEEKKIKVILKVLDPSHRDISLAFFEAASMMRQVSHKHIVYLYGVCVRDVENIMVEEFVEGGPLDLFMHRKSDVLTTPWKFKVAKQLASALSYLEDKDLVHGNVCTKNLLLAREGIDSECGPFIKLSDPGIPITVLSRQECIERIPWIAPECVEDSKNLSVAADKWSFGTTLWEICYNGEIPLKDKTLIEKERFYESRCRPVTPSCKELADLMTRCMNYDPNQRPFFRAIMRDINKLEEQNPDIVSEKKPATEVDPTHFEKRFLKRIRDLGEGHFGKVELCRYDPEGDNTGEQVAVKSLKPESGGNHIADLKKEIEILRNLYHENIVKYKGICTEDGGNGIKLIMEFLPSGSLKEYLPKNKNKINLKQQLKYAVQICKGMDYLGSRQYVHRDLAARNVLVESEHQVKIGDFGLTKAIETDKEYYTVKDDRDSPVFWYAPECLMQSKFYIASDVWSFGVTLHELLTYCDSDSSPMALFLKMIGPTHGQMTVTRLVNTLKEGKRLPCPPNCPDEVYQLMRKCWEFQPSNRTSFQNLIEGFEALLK

`O=C(NCCC(F)(F)F)c1n[nH]c2c1CN(c1ncnc3[nH]ccc13)CC2` [Compound 109] and `O=C(NCCC(F)(F)F)c1noc2c1CN(c1ncnc3[nH]ccc13)CC2` [Compound 110] cannot be ordered by IC50: < 100 nM for the first, < 100 nM for the second.

First: N#Cc1cn(C(=O)NCCC(F)(F)F)c2c1CCN(c1ncnc3[nH]ccc13)C2 [Compound 143]
Second: O=C(NC(CO)CC(F)(F)F)c1noc2c1CN(c1ncnc3[nH]ccc13)CC2 (stereo not drawn) [Compound 186]
The IC50 of the first is higher: 100 to 500 nM for the first, < 100 nM for the second. The second is the more potent here.

Compared with `O=C(NCC1CC1(F)F)c1noc2c1CN(c1ncnc3[nH]ccc13)CC2` (stereo not drawn) [Compound 179], `O=C(NC1CC1C(F)(F)F)c1noc2c1CN(c1ncnc3[nH]ccc13)CC2` (stereo not drawn) [Compound 182] is lower in IC50: 100 to 500 nM for the first, < 100 nM for the second. The second is the more potent here.
